# Source: article PMC6598542, “Synthesis of a new series of 3-functionalised-1-phenyl-1,2,3-triazole sulfamoylbenzamides as carbonic anhydrase I, II, IV and IX inhibitors” (Journal of Enzyme Inhibition and Medicinal Chemistry, 2019)
# Biological target: T1, hCA IX (Homo sapiens, UniProt Q16790)
# T1 construct: gene CA9; recombinant, transmembrane isoform
# Experiment: stopped-flow CO2 hydration
# Assay type: biochemical
# Conditions: not given
# In short: (§1)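 Inhibition of recombinant human isozymes was measured by stopped-flow CO2 hydration, and Ki was obtained by non-linear least-squares fitting with the Cheng-Prusoff equation. Enzyme and inhibitor were first preincubated for 10 min at room temperature, then the reaction was followed for 5–10 s at 557 nm and 25 °C in 10 mM Hepes pH 7.4 containing 0.2 mM Phenol Red and 0.1 M Na2SO4 or NaClO4, with CO2-saturated water as substrate. Each value is the mean of at least three determinations, from at least seven inhibitor concentrations down to 0.01 nM tested in triplicate.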
row,Structure (SMILES),Ki [nM]
1,"NS(=O)(=O)c1cc(C(=O)NCc2cn(-c3cccc(F)c3)nn2)ccc1F [6q, 4-Fluoro-N-((1–(3-fluorophenyl)-1H-1,2,3-triazol-4-yl)methyl)-3-sulfamoylbenzamide]",30.8
2,"Cc1ccc(-n2cc(CNC(=O)c3ccc(F)c(S(N)(=O)=O)c3)nn2)cc1 [6r, 4-Fluoro-3-sulfamoyl-N-((1-(p-tolyl)-1H-1,2,3-triazol-4-yl)methyl)benzamide]",67.5
3,"N#Cc1cccc(-n2cc(CNC(=O)c3ccc(F)c(S(N)(=O)=O)c3)nn2)c1 [6s, N-((1–(3-cyanophenyl)-1H-1,2,3-triazol-4-yl)methyl)-4-fluoro-3-sulfamoylbenzamide]",67.9
4,"NS(=O)(=O)c1cc(C(=O)NCc2cn(-c3ccc(Br)cc3)nn2)ccc1F [6t, N-((1–(4-bromophenyl)-1H-1,2,3-triazol-4-yl)methyl)-4-fluoro-3-sulfamoylbenzamide]",71.5

# Biological target: T2, hCA I (Homo sapiens, UniProt P00915)
# T2 construct: gene CA1; recombinant, cytosolic isoform
# T2 sequence (P00915 2-261): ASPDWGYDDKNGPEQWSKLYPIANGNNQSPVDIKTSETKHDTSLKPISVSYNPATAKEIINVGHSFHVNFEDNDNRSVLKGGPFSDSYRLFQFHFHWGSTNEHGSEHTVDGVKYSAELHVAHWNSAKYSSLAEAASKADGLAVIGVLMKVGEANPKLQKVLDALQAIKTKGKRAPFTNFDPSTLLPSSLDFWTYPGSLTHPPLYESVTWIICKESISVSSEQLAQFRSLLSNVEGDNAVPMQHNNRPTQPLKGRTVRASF
# Experiment: stopped-flow CO2 hydration
# Assay type: biochemical
# Conditions: not given
# In short: as §1
row,Structure (SMILES),Ki [nM]
1,"NS(=O)(=O)c1cc(C(=O)NCc2cn(-c3cccc(F)c3)nn2)ccc1F [6q, 4-Fluoro-N-((1–(3-fluorophenyl)-1H-1,2,3-triazol-4-yl)methyl)-3-sulfamoylbenzamide]",426
2,"Cc1ccc(-n2cc(CNC(=O)c3ccc(F)c(S(N)(=O)=O)c3)nn2)cc1 [6r, 4-Fluoro-3-sulfamoyl-N-((1-(p-tolyl)-1H-1,2,3-triazol-4-yl)methyl)benzamide]",836
3,"N#Cc1cccc(-n2cc(CNC(=O)c3ccc(F)c(S(N)(=O)=O)c3)nn2)c1 [6s, N-((1–(3-cyanophenyl)-1H-1,2,3-triazol-4-yl)methyl)-4-fluoro-3-sulfamoylbenzamide]",696
4,"NS(=O)(=O)c1cc(C(=O)NCc2cn(-c3ccc(Br)cc3)nn2)ccc1F [6t, N-((1–(4-bromophenyl)-1H-1,2,3-triazol-4-yl)methyl)-4-fluoro-3-sulfamoylbenzamide]",696

# Biological target: T3, hCA IV (Homo sapiens, UniProt P22748)
# T3 construct: gene CA4
# T3 sequence (P22748 19-284): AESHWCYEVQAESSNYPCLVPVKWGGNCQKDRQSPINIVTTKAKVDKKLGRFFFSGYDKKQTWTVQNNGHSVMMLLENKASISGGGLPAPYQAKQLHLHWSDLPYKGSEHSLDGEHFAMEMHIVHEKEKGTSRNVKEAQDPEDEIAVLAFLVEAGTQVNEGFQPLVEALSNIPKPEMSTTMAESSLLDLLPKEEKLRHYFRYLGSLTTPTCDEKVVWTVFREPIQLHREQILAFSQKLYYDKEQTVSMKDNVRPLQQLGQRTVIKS
# Experiment: stopped-flow CO2 hydration
# Assay type: biochemical
# Conditions: not given
# In short: as §1
row,Structure (SMILES),Ki [nM]
1,"NS(=O)(=O)c1cc(C(=O)NCc2cn(-c3cccc(F)c3)nn2)ccc1F [6q, 4-Fluoro-N-((1–(3-fluorophenyl)-1H-1,2,3-triazol-4-yl)methyl)-3-sulfamoylbenzamide]",5310
2,"Cc1ccc(-n2cc(CNC(=O)c3ccc(F)c(S(N)(=O)=O)c3)nn2)cc1 [6r, 4-Fluoro-3-sulfamoyl-N-((1-(p-tolyl)-1H-1,2,3-triazol-4-yl)methyl)benzamide]",215
3,"N#Cc1cccc(-n2cc(CNC(=O)c3ccc(F)c(S(N)(=O)=O)c3)nn2)c1 [6s, N-((1–(3-cyanophenyl)-1H-1,2,3-triazol-4-yl)methyl)-4-fluoro-3-sulfamoylbenzamide]",3400
4,"NS(=O)(=O)c1cc(C(=O)NCc2cn(-c3ccc(Br)cc3)nn2)ccc1F [6t, N-((1–(4-bromophenyl)-1H-1,2,3-triazol-4-yl)methyl)-4-fluoro-3-sulfamoylbenzamide]",515

# Biological target: T4, hCA II (Homo sapiens, UniProt P00918)
# T4 construct: gene CA2; recombinant, cytosolic isoform
# Experiment: stopped-flow CO2 hydration
# Assay type: biochemical
# Conditions: read-out: hCAII
# In short: as §1
row,Structure (SMILES),Ki [nM]
1,"NS(=O)(=O)c1cc(C(=O)NCc2cn(-c3cccc(F)c3)nn2)ccc1F [6q, 4-Fluoro-N-((1–(3-fluorophenyl)-1H-1,2,3-triazol-4-yl)methyl)-3-sulfamoylbenzamide]",329
2,"Cc1ccc(-n2cc(CNC(=O)c3ccc(F)c(S(N)(=O)=O)c3)nn2)cc1 [6r, 4-Fluoro-3-sulfamoyl-N-((1-(p-tolyl)-1H-1,2,3-triazol-4-yl)methyl)benzamide]",260
3,"N#Cc1cccc(-n2cc(CNC(=O)c3ccc(F)c(S(N)(=O)=O)c3)nn2)c1 [6s, N-((1–(3-cyanophenyl)-1H-1,2,3-triazol-4-yl)methyl)-4-fluoro-3-sulfamoylbenzamide]",402
4,"NS(=O)(=O)c1cc(C(=O)NCc2cn(-c3ccc(Br)cc3)nn2)ccc1F [6t, N-((1–(4-bromophenyl)-1H-1,2,3-triazol-4-yl)methyl)-4-fluoro-3-sulfamoylbenzamide]",372
